pEC50, pIC50, pKd: −log10 of the molar value. The source made the active and inactive calls. No cut-off for these calls is given here. Where a SMILES comes first, the peptide text is derived from it. Bridges are numbered along the chain shown (N, C = ends).
Columns and labels:
[1] = Drug uptake in human MCF7 cells assessed as cell area stained at 10 uM after 3 hrs by Hoechst 33342 staining based confocal microscopic analysis; format: ADME; conditions: mcf7, 3 h
[2] = molecular target: T1, Lysine-specific demethylase 4A (Homo sapiens, UniProt O75164); assay: Inhibition of KDM4A (unknown origin) expressed in Escherichia coli using biotinylated peptide as substrate pretreated for 15 mins followed by substrate addition by Alphascreen assay
T1 sequence (O75164 whole entry): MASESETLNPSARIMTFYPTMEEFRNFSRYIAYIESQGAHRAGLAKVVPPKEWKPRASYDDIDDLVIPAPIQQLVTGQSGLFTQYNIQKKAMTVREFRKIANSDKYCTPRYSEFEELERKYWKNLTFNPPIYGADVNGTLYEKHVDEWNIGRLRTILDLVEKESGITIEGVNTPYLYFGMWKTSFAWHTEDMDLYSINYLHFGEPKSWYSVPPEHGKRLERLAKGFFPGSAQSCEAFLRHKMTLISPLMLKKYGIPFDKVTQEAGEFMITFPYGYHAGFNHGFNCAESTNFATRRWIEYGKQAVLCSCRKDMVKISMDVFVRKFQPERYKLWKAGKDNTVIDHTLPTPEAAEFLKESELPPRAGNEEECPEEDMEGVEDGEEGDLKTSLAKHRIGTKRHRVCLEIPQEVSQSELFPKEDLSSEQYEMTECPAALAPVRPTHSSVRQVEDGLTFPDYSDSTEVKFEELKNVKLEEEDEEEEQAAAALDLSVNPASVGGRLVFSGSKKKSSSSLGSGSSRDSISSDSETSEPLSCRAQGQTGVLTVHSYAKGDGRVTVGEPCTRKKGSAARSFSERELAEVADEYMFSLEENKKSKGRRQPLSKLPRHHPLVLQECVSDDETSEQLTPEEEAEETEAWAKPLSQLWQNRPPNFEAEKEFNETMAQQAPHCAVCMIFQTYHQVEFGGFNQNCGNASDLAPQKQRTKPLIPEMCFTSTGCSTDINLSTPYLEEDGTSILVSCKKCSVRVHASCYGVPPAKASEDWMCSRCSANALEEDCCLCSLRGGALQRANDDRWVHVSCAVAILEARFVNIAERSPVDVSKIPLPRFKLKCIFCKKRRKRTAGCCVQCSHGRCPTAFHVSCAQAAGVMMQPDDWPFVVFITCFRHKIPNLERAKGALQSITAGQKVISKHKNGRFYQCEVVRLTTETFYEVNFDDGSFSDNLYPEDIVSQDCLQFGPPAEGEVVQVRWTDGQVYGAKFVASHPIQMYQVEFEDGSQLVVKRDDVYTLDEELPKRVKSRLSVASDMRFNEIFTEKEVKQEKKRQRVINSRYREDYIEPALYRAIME

[3] = molecular target: T2, Lysine-specific demethylase 4C (Homo sapiens, UniProt Q9H3R0); assay: Inhibition of KDM4C (unknown origin) expressed in Escherichia coli using biotinylated peptide as substrate pretreated for 15 mins followed by substrate addition by Alphascreen assay
T2 sequence (Q9H3R0 whole entry): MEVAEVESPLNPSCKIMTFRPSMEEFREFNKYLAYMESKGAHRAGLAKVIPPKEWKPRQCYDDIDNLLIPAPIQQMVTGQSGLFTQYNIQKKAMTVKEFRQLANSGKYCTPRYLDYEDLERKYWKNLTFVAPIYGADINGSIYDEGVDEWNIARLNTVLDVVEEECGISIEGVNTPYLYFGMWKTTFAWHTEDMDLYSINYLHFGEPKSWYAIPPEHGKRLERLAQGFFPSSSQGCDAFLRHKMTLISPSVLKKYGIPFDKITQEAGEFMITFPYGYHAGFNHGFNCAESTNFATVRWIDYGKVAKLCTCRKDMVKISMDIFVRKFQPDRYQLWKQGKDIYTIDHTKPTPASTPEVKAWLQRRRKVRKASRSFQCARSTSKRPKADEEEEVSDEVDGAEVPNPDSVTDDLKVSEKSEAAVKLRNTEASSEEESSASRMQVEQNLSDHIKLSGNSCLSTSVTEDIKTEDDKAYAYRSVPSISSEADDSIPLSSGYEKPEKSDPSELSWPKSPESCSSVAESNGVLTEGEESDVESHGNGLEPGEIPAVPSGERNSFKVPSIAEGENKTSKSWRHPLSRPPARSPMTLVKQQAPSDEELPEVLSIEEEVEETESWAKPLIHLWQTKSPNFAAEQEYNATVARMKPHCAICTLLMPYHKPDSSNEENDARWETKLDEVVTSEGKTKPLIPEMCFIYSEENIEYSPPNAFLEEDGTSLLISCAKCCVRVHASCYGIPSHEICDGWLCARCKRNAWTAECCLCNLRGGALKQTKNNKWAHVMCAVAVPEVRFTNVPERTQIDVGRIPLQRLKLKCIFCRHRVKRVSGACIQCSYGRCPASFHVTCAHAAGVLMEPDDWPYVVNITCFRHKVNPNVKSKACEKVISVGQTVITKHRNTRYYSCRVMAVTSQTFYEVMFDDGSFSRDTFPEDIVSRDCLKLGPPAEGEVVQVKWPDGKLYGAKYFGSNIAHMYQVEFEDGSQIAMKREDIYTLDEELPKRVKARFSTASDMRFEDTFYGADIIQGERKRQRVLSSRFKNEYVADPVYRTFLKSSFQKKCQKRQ

[4] = molecular target: T1, Lysine-specific demethylase 4A; assay: Stabilization of FLAG-tagged KDM4A (1 to 1064 residues) (unknown origin) expressed in human U2OS cells measured after 3 hrs by CETSA; format: cell-based
[5] = molecular target: T1, Lysine-specific demethylase 4A; assay: Binding affinity to N-terminal His6-tagged KDM4A (1 to 359 residues) (unknown origin) expressed in Escherichia coli BL21(DE3) Rosetta by bio-layer interferometric method; conditions: read-out: Kd(app)
[6] = molecular target: T1, Lysine-specific demethylase 4A; assay: Inhibition of full length FLAG-tagged KDM4A (unknown origin) expressed in human HeLa cells assessed as increase in H3K9me3 levels after 24 hrs by DAPI staining based immunofluorescence assay; format: cell-based
HeLa [7] = assay: Cytotoxicity against human HeLa cells expressing FLAG-tagged KDM4A assessed as reduction in cell numbers at >5 uM after 24 hrs by DAPI staining based immunofluorescence assay
[8] = molecular target: T1, Lysine-specific demethylase 4A; assay: (§1) Binding affinity to biotinylated-KDM4A (unknown origin) at 300 nM by bio-layer interferometric method; conditions: read-out: Kd(app)
HeLa [9] = assay: Cytotoxicity against human HeLa cells expressing FLAG-tagged KDM4A assessed as condensed nucleus at 50 uM after 24 hrs by DAPI staining based immunofluorescence assay; format: cell-based
[10] = molecular target: T3, Lysine-specific demethylase 4A (Homo sapiens) (UniProt O75164); assay: as §1
T3 sequence (whole entry): T1 sequence (O75164 whole entry)

[11] = molecular target: T3, Lysine-specific demethylase 4A (Homo sapiens); assay: Inhibition of full length FLAG-tagged KDM4A (unknown origin) expressed in human HeLa cells assessed as increase in H3K9me3 levels at >20 uM after 24 hrs by DAPI staining based immunofluorescence assay; format: cell-based
[12] = Drug localization in lysosomes of human MCF7 cells at 10 uM after 3 hrs by Lysotracker red DND-99 staining based confocal microscopic analysis; format: ADME, subcellular, Lysosome; conditions: mcf7, 3 h

| Compound | Drug uptake [1] | pIC50 [2] | pIC50 [3] | pEC50 [4] | pKd [5] | pEC50 [6] | pKd [8] | Kd(app) [10] | inhibition [11] | Drug uptake [12] | Activity (HeLa [7]) | Activity (HeLa [9]) |
| --- | --- | --- | --- | --- | --- | --- | --- | --- | --- | --- | --- | --- |
| CC(C)[C@@H]1NC(=O)[C@@H](Cc2ccc(O)cc2)NC(=O)CSC[C@@H](C(N)=O)NC(=O)[C@H](Cc2c[nH]c3ccccc23)NC(=O)[C@H](Cc2ccc(O)cc2)NC(=O)[C@H](Cc2c[nH]c3ccccc23)NC(=O)[C@H](CCCNC(=N)N)NC(=O)[C@H](Cc2c[nH]c3ccccc23)NC(=O)CNC(=O)[C@H](CO)NC(=O)[C@H](CCCNC(=N)N)NC(=O)[C@H]([C@@H](C)O)NC(=O)[C@H](CC(N)=O)NC(=O)[C@H](Cc2ccc(O)cc2)NC1=O | 17.4% | 7.39 | 7.34 | < 4.00 | 7.53 |  |  |  |  |  |  |  |
| CC[C@H](C)[C@@H]1NC(=O)CNC(=O)[C@H](CO)NC(=O)[C@H](CCCNC(=N)N)NC(=O)[C@H](CCCNC(=N)N)NC(=O)[C@H](Cc2ccccc2)NC(=O)[C@H](CCCNC(=N)N)NC(=O)[C@H]([C@@H](C)O)NC(=O)[C@@H](Cc2ccc(O)cc2)NC(=O)CSC[C@@H](C(N)=O)NC(=O)[C@H](Cc2ccc(O)cc2)NC(=O)[C@H](Cc2ccc(O)cc2)NC(=O)[C@H](Cc2ccccc2)NC(=O)[C@H](C(C)C)NC1=O | 13.4% |  |  |  |  | < 4.30 | 8.59 |  |  |  | Toxic | Toxic |
| CC[C@H](C)[C@@H]1NC(=O)CNC(=O)[C@H](CO)NC(=O)[C@H](CCCNC(=N)N)NC(=O)[C@H](CCCNC(=N)N)NC(=O)[C@H]([C@@H](C)CC)NC(=O)[C@H](CCCNC(=N)N)NC(=O)[C@@H]2CCCN2C(=O)[C@H](Cc2ccc(O)cc2)NC(=O)CSC[C@@H](C(N)=O)NC(=O)[C@H](Cc2c[nH]c3ccccc23)NC(=O)[C@H](CCCNC(=N)N)NC1=O ({CH2CO}-YPRIRRSGIRWC-NH2; thioether N-12) | 76.8% | 6.21 | 6.33 |  |  | < 4.30 | < 6.52 |  |  | Active |  |  |

Now from value to compound, other results behind:

| Drug uptake [1] | pIC50 [2] | pIC50 [3] | pEC50 [4] | pKd [5] | pEC50 [6] | pKd [8] | Kd(app) [10] | inhibition [11] | Drug uptake [12] | Compound | Activity (HeLa [7]) | Activity (HeLa [9]) |
| --- | --- | --- | --- | --- | --- | --- | --- | --- | --- | --- | --- | --- |
| 1.2% | 6.57 | 7.19 |  |  | < 4.30 |  | inactive |  |  | CC[C@H](C)[C@@H]1NC(=O)[C@H](CCCNC(=N)N)NC(=O)[C@@H]2CCCN2C(=O)[C@H](Cc2ccc(O)cc2)NC(=O)CSC[C@@H](C(N)=O)N(C)C(=O)[C@H](Cc2c[nH]c3ccccc23)NC(=O)[C@H](CCCNC(=N)N)NC(=O)[C@H]([C@@H](C)CC)NC(=O)[C@@H](C)NC(=O)[C@H](CO)NC(=O)[C@H](CCCNC(=N)N)NC(=O)[C@H](CCCNC(=N)N)NC1=O |  |  |
| 7.4% | 7.77 | 7.57 |  |  | < 4.30 | 7.64 |  | Active |  | CC[C@H](C)[C@@H]1NC(=O)[C@H](CCCNC(=N)N)NC(=O)[C@H]([C@@H](C)CC)N(C)C(=O)[C@H](Cc2ccc(O)cc2)NC(=O)CSC[C@@H](C(N)=O)N(C)C(=O)[C@H](Cc2c[nH]c3ccccc23)NC(=O)[C@H](CC(C)C)NC(=O)[C@H](Cc2c[nH]c3ccccc23)NC(=O)[C@@H](C)NC(=O)[C@H](CO)NC(=O)[C@H](CCCNC(=N)N)NC(=O)[C@H](CCCNC(=N)N)NC1=O |  |  |
|  |  |  |  |  |  |  |  | Active |  | CC[C@H](C)[C@@H]1NC(=O)CNC(=O)[C@H](CO)NC(=O)[C@H](CCCNC(=N)N)NC(=O)[C@H](CCCNC(=N)N)NC(=O)[C@H](Cc2ccccc2)NC(=O)[C@H](CCCNC(=N)N)NC(=O)[C@H]([C@H](C)O)NC(=O)[C@@H](Cc2ccc(O)cc2)NC(=O)CSC[C@@H](C(N)=O)NC(=O)[C@H](Cc2ccc(O)cc2)NC(=O)[C@H](Cc2ccc(O)cc2)NC(=O)[C@H](Cc2ccccc2)NC(=O)[C@H](C(C)C)NC1=O |  |  |
| 65.3% | 7.64 | 7.64 |  |  | < 4.30 | 7.38 |  |  | Active | CC[C@H](C)[C@@H]1NC(=O)[C@H](CCCNC(=N)N)NC(=O)[C@H]([C@@H](C)CC)NC(=O)[C@H](Cc2ccc(O)cc2)NC(=O)CSC[C@@H](C(N)=O)NC(=O)[C@H](Cc2c[nH]c3ccccc23)NC(=O)[C@H](CC(C)C)NC(=O)[C@H](Cc2c[nH]c3ccccc23)NC(=O)CNC(=O)[C@H](CO)NC(=O)[C@H](CCCNC(=N)N)NC(=O)[C@H](CCCNC(=N)N)NC1=O ({CH2CO}-YIRIRRSGWLWC-NH2; thioether N-12) |  |  |

Source: ChEMBL document CHEMBL4184250, “Structure-activity studies of a macrocyclic peptide inhibitor of histone lysine demethylase 4A” (Bioorg Med Chem, 2018)
